US20210322785A1, “COMPOSITIONS AND METHODS FOR TREATING WOUNDS” (C.P. MEDICAL CORPORATION, priority 2018, published 2021)

Key:
[1] = Drug elution from polymer into PBS at 37° C.; format: physicochemical; settings: within the first three days; polymer prepared with Nolvasan, 2% chlorhexidine dose (50 mg); PBS 37° C.
Experimental: A Thermo Scientific GENESYS 10S UV-Vis spectrophotometer was used to quantify the release of various drugs from several polymers. First, the reference drug or drug solution was dissolved in an appropriate solvent. Typically, phosphate buffered saline (PBS), ethanol or dimethylsulfoxide (DMSO) were used as the solvent. Next, the optimal absorption peak for identifying and quantifying the drug was determined by performing a scan of the drug solution between 200 and 1000 nm. With the absorption peak selected, a reference curve was established by measuring the peak absorbance for various concentrations of the drug. […]
Elution samples were collected daily by decanting the PBS solution from the polymer. The volume of sample collected was recorded. […] The elution sample was analyzed by first diluting the sample in the appropriate solvent using analytical pipettes such that the measured absorbance was in the range determined by the reference curve. The dilution factor was recorded. The drug concentration was calculated from the measured absorbance via the reference curve and the dilution factor. The drug amount was calculated by multiplying the drug concentration with the sample volume. The percent elution for that day was calculated by dividing the drug amount by the total amount of drug administered. […]

[2] = Hydrogel surface spread test; format: physicochemical; design: key: 1: no spreading, tight drops that stay in place; 2: mild spreading, drops drip slowly down; 3: severe spreading, drops completely wet surface; settings: drop from 22 gauge needle on 97.5% water hydrogel surface, incline about 30°
Experimental: To model the performance of the polymer solutions on a hydrophilic surface the extent of spreading and dripping of droplets on a high water content biocompatible hydrogel polymer matrix surface at an incline of about 30° was recorded. […] The solution was stirred with a spatula for 10 to 20 seconds and allowed to gel, which typically took 5 to 10 minutes. The water content of the resulting polymer was 97.5%.
The test was performed by first preparing the polymer solution in the usual fashion. After thorough mixing, the polymer solution was dispensed dropwise through a 22 gauge needle onto the biocompatible biocompatible hydrogel polymer matrix surface. The results are shown in Table 9B and were divided into three general categories: 1) no spreading, tight drops that stay in place; 2) mild spreading, drops drip slowly down; 3) severe spreading, drops completely wet surface. Water is in category 3.

Row | Compound | chlorhexidine released from polymer [1] | hydrogel surface spread test category [2]
1 | [H]/N=C(\N/C(=N/[H])NCCCCCCNC(=N)NC(=N)Nc1ccc(Cl)cc1)Nc1ccc(Cl)cc1 [chlorhexidine] | Almost half | –
2 | Water | – | 3
